Results taken from ChEMBL document CHEMBL1201862, “PubChem BioAssay data set” (2004).
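Tested at 5 concentrations; 48 h exposure; 96-well plates; endpoints linearly interpolated, else capped at highest concentration. GI50: concentration for 50% inhibition of growth.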 The source made the active and inactive calls. Rule as the data show it: active = GI50 up to about 1.1 µM and inactive = higher.

Key:
Experiment in all cases: NCI-60 cell line screen, 48 h
786-0 = test system: 786-0
A498 = test system: A498
A549 = test system: A549
ACHN = test system: ACHN
CAKI-1 = test system: CAKI-1
CCRF-CEM = test system: CCRF-CEM
COLO 205 = test system: COLO 205
DLD-1 = test system: DLD-1
DMS-114 = test system: DMS-114
DMS-273 = test system: DMS-273
EKVX = test system: EKVX
HCC 2998 = test system: HCC 2998
HCT-116 = test system: HCT-116
HCT-15 = test system: HCT-15
HL-60 = test system: HL-60
HOP-18 = test system: HOP-18
HOP-62 = test system: HOP-62
HOP-92 = test system: HOP-92
HT-29 = test system: HT-29
IGROV-1 = test system: IGROV-1
K562 = test system: K562
KM-20L2 = test system: KM-20L2
KM12 = test system: KM12
LOX IMVI = test system: LOX IMVI
LXFL 529 = test system: LXFL 529
M14 = test system: M14
M19-MEL = test system: M19-MEL
MOLT-4 = test system: MOLT-4
Malme-3M = test system: Malme-3M
NCI-H23 = test system: NCI-H23
NCI-H460 = test system: NCI-H460
OVCAR-3 = test system: OVCAR-3
OVCAR-4 = test system: OVCAR-4
OVCAR-5 = test system: OVCAR-5
OVCAR-8 = test system: OVCAR-8
RPMI-8226 = test system: RPMI-8226
SF-295 = test system: SF-295
SF-539 = test system: SF-539
SK-MEL-28 = test system: SK-MEL-28
SK-MEL-2 = test system: SK-MEL-2
SK-MEL-5 = test system: SK-MEL-5
SK-OV-3 = test system: SK-OV-3
SNB-19 = test system: SNB-19
SNB-75 = test system: SNB-75
SNB-78 = test system: SNB-78
SW-620 = test system: SW-620
TK-10 = test system: TK-10
U-251 = test system: U-251
UACC-257 = test system: UACC-257
UACC-62 = test system: UACC-62
XF498 = test system: XF498
NCI-H226 = test system: NCI-H226
NCI-H522 = test system: NCI-H522
RXF 393 = test system: RXF 393
SF-268 = test system: SF-268
SN12C = test system: SN12C
SR = test system: SR
UO-31 = test system: UO-31

Measured: GI50

C=C(/C=C/C=C(\CO)CCC=C(C)C)[C@H]1CCC2([C@H](CCCO)/C(=C(/C)C=O)CC[C@]2(C)O)[C@H]1O (some centres not stated)
inactive: 786-0 > 100 µM | A498 > 100 µM | A549 59 µM | ACHN > 100 µM | CAKI-1 > 100 µM | CCRF-CEM 38.2 µM | COLO 205 26.3 µM | DLD-1 > 100 µM | DMS-114 > 100 µM | DMS-273 > 100 µM | EKVX 83.8 µM | HCC 2998 > 100 µM | HCT-116 > 100 µM | HL-60 56.1 µM | HOP-18 40.9 µM | HOP-62 75.9 µM | HOP-92 3.56 µM | HT-29 > 100 µM | IGROV-1 > 100 µM | K562 51.4 µM | KM-20L2 > 100 µM | KM12 > 100 µM | LOX IMVI 54.2 µM | LXFL 529 > 100 µM | M14 > 100 µM | M19-MEL > 100 µM | MOLT-4 > 100 µM | Malme-3M > 100 µM | NCI-H23 > 100 µM | NCI-H460 56.8 µM | OVCAR-3 > 100 µM | OVCAR-4 > 100 µM | OVCAR-5 > 100 µM | OVCAR-8 > 100 µM | RPMI-8226 > 100 µM | SF-295 21.2 µM | SF-539 83.4 µM | SK-MEL-28 > 100 µM | SK-MEL-2 > 100 µM | SK-MEL-5 > 100 µM | SK-OV-3 > 100 µM | SNB-19 > 100 µM | SNB-75 58.6 µM | SNB-78 > 100 µM | SW-620 > 100 µM | TK-10 82 µM | U-251 > 100 µM | UACC-257 > 100 µM | UACC-62 > 100 µM | XF498 > 100 µM
> 100 µM: HCT-15

N#CC1=C(Cl)NC(Cl)=C(C#N)C1c1c(Cl)cccc1Cl
inactive: 786-0 25.1 µM | A498 94.6 µM | A549 29.1 µM | ACHN 39.1 µM | CAKI-1 55.6 µM | CCRF-CEM 24.4 µM | COLO 205 17.5 µM | DLD-1 21.4 µM | DMS-114 14.2 µM | DMS-273 19.6 µM | EKVX 49.8 µM | HCC 2998 24.1 µM | HCT-116 18.7 µM | HL-60 19.6 µM | HOP-18 30.1 µM | HOP-62 48.2 µM | HOP-92 21.4 µM | HT-29 31.4 µM | IGROV-1 37.9 µM | K562 19 µM | KM-20L2 45.8 µM | KM12 21.8 µM | LOX IMVI 17.3 µM | LXFL 529 30.8 µM | M14 38.8 µM | MOLT-4 32.5 µM | Malme-3M 46 µM | NCI-H226 > 100 µM | NCI-H23 35.9 µM | NCI-H460 18.4 µM | NCI-H522 17.2 µM | OVCAR-3 25.1 µM | OVCAR-5 > 100 µM | OVCAR-8 26.1 µM | RPMI-8226 22.5 µM | RXF 393 22.6 µM | SF-268 30.4 µM | SF-295 41.7 µM | SF-539 46 µM | SK-MEL-28 35.2 µM | SK-MEL-2 58.3 µM | SK-MEL-5 21.5 µM | SK-OV-3 29.7 µM | SN12C 24.7 µM | SNB-19 27.9 µM | SNB-75 34.4 µM | SNB-78 92.7 µM | SR 40.7 µM | SW-620 14 µM | TK-10 36.5 µM | U-251 16.3 µM | UACC-257 22.1 µM | UACC-62 30.2 µM | UO-31 49.4 µM | XF498 13.9 µM
16.2 µM: HCT-15
